Measured values reported in article PMC12171880, “Selectivity and Safety Characterization of a Xanthine–Imidazothiazole Lead Structure: a Novel Tryptophan Hydroxylase Inhibitor of Peripheral Serotonin Synthesis” (ACS Pharmacology & Translational Science, 2025).
“And” between values parts separate entries of the source, which are not always exact repeats. Equal entries are not always repeated.

Columns and labels:
Sprague–Dawley rats [1] = test: Dose-range finding study in rats, histopathology; format: in vivo, rat
Description: (§1) Blood samples were collected as described below. The animal sacrifice (exsanguination) was performed on day 8. During the necropsy, the selected organs were collected, weighed, and shipped to a third-party laboratory for histopathological examination (as described below).
The histological evaluation was performed by AnaPath Services GmbH (Liestal, Switzerland). The samples from the organs–liver, kidney, lung, heart, brain, femur, and ovary–were fixed in 4% neutral-buffered formaldehyde. The testes were fixed by using the Davidson solution. All tissues were trimmed, processed, and embedded in paraffin wax. Samples from the femur were processed and embedded in paraffin after decalcification. Blocks were cut at an approximate thickness of 2–4 μm and stained with hematoxylin and eosin (HE) according to AnaPath Services GmbH SOP’s. The slides were checked under the microscope for a quality check before examination under a light microscope by the study pathologist.

[2] = Toxicokinetic evaluation, plasma exposure in rats (LC-MS); format: in vivo, rat; details: for concentration at 30 min: both sexes, Sprague-Dawley, rat, plasma, po
Description: (§2) TPT-004 was formulated in 0.5% (w/v) CMC-Na in water and administered by oral gavage (PO) twice daily (b.i.d.) with a 12 h interval to the treatment groups (3 male and 3 female Sprague–Dawley rats each) for 8 days (15 successive applications). Rats were dosed with 10, 45, and 200 mg/kg, i.e., daily doses of 20, 90, and 400 mg/kg. In addition, a control group was dosed at the same frequency as the vehicle (0.5% CMC-Na).
A blood sample of 100 μL was obtained from each rat by puncturing one of the lateral tail veins under short isoflurane anesthesia. Blood was collected in tubes containing lithium heparin and gently mixed. After centrifugation (10 min at 3000g, 4 °C), plasma was separated and stored at −20 °C until LC-MS analysis. In addition, on day 8, the rats were exsanguinated by cardiac puncture under isoflurane anesthesia. A volume of 100 μL of blood (K3-EDTA) was used for immediate cell blood count, while the rest of the blood was mixed with lithium heparin and centrifuged to generate plasma for clinical chemistry analysis.

Sprague–Dawley rats [3] = test: Dose-range finding study in rats, necropsy and organ weight; format: in vivo, rat; details: for Organ weight, Brain / Organ weight, Heart / Organ weight, Kidney / Organ weight, Liver / Organ weight, Lung / Organ weight, Ovary (n=3 per group) / Organ weight, Spleen / Organ weight, Testis (n=3 per group): day 8
Description: as §2, §1

human recombinant TPH2 = target: T1, human recombinant TPH2 (Homo sapiens, UniProt Q8IWU9); test: TPH2 enzymatic activity assay (fluorescence, 96-well); format: biochemical
T1 construct: Full-length human TPH1 and TPH2 (UniProt entries P17752 and Q8IWU9); MBP (N); made in house
T1 sequence (Q8IWU9 1-490): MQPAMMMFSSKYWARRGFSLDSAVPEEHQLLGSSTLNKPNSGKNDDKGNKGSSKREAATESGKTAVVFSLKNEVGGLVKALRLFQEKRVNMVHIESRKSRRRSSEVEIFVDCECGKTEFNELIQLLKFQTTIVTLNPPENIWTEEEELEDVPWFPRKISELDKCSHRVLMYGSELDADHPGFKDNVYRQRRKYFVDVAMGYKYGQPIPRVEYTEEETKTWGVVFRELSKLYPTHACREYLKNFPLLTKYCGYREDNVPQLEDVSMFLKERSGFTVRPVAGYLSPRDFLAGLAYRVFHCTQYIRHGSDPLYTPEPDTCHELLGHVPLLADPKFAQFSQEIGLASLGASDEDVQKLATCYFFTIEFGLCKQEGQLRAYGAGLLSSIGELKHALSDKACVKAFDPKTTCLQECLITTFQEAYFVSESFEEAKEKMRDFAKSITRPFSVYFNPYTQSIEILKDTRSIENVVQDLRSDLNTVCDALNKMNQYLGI

CCn1c(=O)[nH]c(=O)c2c1nc(Cc1cn3cc(C)sc3n1)n2CC1COC1 [TPT-004]
histopathological findings in heart, spleen, kidney, lung, brain, femur, testis, or ovary (Sprague–Dawley rats [1]; 45 and 200 mg/kg BID): no test-related findings | histopathological finding in the liver (Sprague–Dawley rats [1]; only at doses ≥45 mg/kg BID): multifocal, minimal centrilobular hypertrophy | accumulation in plasma after 15 doses ([2]; 10, 45, 200 mg/kg BID, day 1 vs day 8): absence of an accumulation effect | concentration at 30 min ([2]; 10 mg/kg, day 1, 30 min after the first application, 10 mg/kg PO): 902 ± 247 ng/mL | concentration at 30 min ([2]; 10 mg/kg, day 8, 30 min after the 15th application, 10 mg/kg BID PO): 877 ± 210 ng/mL | concentration at 30 min ([2]; 45 mg/kg, day 1, 30 min after the first application, 45 mg/kg PO): 4720 ± 2420 ng/mL | concentration at 30 min ([2]; 45 mg/kg, day 8, 30 min after the 15th application, 45 mg/kg BID PO): 5040 ± 1790 ng/mL | concentration at 30 min ([2]; 200 mg/kg, day 1, 30 min after the first application, 200 mg/kg PO): 18200 ± 6610 ng/mL | concentration at 30 min ([2]; 200 mg/kg, day 8, 30 min after the 15th application, 200 mg/kg BID PO): 14400 ± 5600 ng/mL | dose linearity correlation in plasma ([2]; day 1): 0.9987 | dose linearity correlation in plasma ([2]; day 8): 0.9826 | Organ weight, Brain (Sprague–Dawley rats [3]; 10 mg/kg PO BID): 6.8 g/kg body weight | Organ weight, Heart (Sprague–Dawley rats [3]; 10 mg/kg PO BID): 3.5 g/kg body weight | Organ weight, Kidney (Sprague–Dawley rats [3]; 10 mg/kg PO BID): 3.8 g/kg body weight | Organ weight, Liver (Sprague–Dawley rats [3]; 10 mg/kg PO BID): 39.4 g/kg body weight | Organ weight, Lung (Sprague–Dawley rats [3]; 10 mg/kg PO BID): 5.3 g/kg body weight | Organ weight, Ovary (n=3 per group) (Sprague–Dawley rats [3]; 10 mg/kg PO BID): 0.72 g/kg body weight | Organ weight, Spleen (Sprague–Dawley rats [3]; 10 mg/kg PO BID): 2.9 g/kg body weight | Organ weight, Testis (n=3 per group) (Sprague–Dawley rats [3]; 10 mg/kg PO BID): 8.7 g/kg body weight | Organ weight, Brain (Sprague–Dawley rats [3]; 45 mg/kg PO BID): 6.5 g/kg body weight | Organ weight, Heart (Sprague–Dawley rats [3]; 45 mg/kg PO BID): 3.6 g/kg body weight | Organ weight, Kidney (Sprague–Dawley rats [3]; 45 mg/kg PO BID): 3.6 g/kg body weight | Organ weight, Liver (Sprague–Dawley rats [3]; 45 mg/kg PO BID): 42.1 g/kg body weight | Organ weight, Lung (Sprague–Dawley rats [3]; 45 mg/kg PO BID): 5.2 g/kg body weight | Organ weight, Ovary (n=3 per group) (Sprague–Dawley rats [3]; 45 mg/kg PO BID): 0.55 g/kg body weight | Organ weight, Spleen (Sprague–Dawley rats [3]; 45 mg/kg PO BID): 2.8 g/kg body weight | Organ weight, Testis (n=3 per group) (Sprague–Dawley rats [3]; 45 mg/kg PO BID): 8.1 g/kg body weight | Organ weight, Brain (Sprague–Dawley rats [3]; 200 mg/kg PO BID): 6.7 g/kg body weight | Organ weight, Heart (Sprague–Dawley rats [3]; 200 mg/kg PO BID): 3.6 g/kg body weight | Organ weight, Kidney (Sprague–Dawley rats [3]; 200 mg/kg PO BID): 4.0 g/kg body weight | Organ weight, Lung (Sprague–Dawley rats [3]; 200 mg/kg PO BID): 5.2 g/kg body weight | Organ weight, Ovary (n=3 per group) (Sprague–Dawley rats [3]; 200 mg/kg PO BID): 0.65 g/kg body weight | Organ weight, Spleen (Sprague–Dawley rats [3]; 200 mg/kg PO BID): 2.8 g/kg body weight | Organ weight, Testis (n=3 per group) (Sprague–Dawley rats [3]; 200 mg/kg PO BID): 8.4 g/kg body weight | Organ weight, Liver (Sprague–Dawley rats [3]; 200 mg/kg PO BID, vehicle 41.2 ± 2.2, p = 0.0128): 45.2 g/kg body weight and 45.2 ± 1.2 g/kg body weight | gross lesions at necropsy (Sprague–Dawley rats [3]; 10, 45, or 200 mg/kg BID PO, 8 days): No test-item-related gross lesions | weight of the organs, vehicle vs treatment groups, overall (Sprague–Dawley rats [3]; 10, 45 or 200 mg/kg BID PO, 8 days, except liver at 200 mg/kg BID): No significant difference | Mean TPH2 activity [%] (human recombinant TPH2; 3 nM): 100.37% | IC50 (human recombinant TPH2; 3 nM to 10 μM, 30 μM L-Trp, 7.5 μM BH4): 21.7 nM | Mean TPH2 activity [%] (human recombinant TPH2; 10 nM): 73.97% | Mean TPH2 activity [%] (human recombinant TPH2; 30 nM): 38.03% | Mean TPH2 activity [%] (human recombinant TPH2; 100 nM): 5.40% | Mean TPH2 activity [%] (human recombinant TPH2; 300 nM): 1.60% | Mean TPH2 activity [%] (human recombinant TPH2; 1 μM): 0.69% | Mean TPH2 activity [%] (human recombinant TPH2; 3 μM): 1.07% | Mean TPH2 activity [%] (human recombinant TPH2; 10 μM): 1.24% | Selectivity ratio TPH2 IC50 : TPH1 IC50 (human recombinant TPH2; calculated from determined IC50 values): 0.65 | IC50 (human recombinant TPH2; supplementary CSV): 22 nM
